Experimental data: the supplement of paper PMC10307832

Tests used:
Experiment in all cases: relative viability (nuclei count vs DMSO), 5 days (fraction); higher = more cells survive
[1] = compound: CCn1c(-c2nonc2N)nc2cnc(Oc3cccc(NC(=O)c4ccc(OCCN5CCOCC5)cc4)c3)cc21
Procedure, shortened: (§1)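 Five library-drug doses spaced by √10 were pinned onto vehicle-anchored 1536-well plates of lung cancer cell lines that had been kept overnight at 37 °C. Cells went 5 days without medium change, then were fixed, permeabilised and Hoechst-stained together, imaged at 4× and counted by MetaXpress. Viability is the ratio of treated-well to vehicle-well nuclei, taken as a median over plates. Plates required control CV below 25% and at least one doubling.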

[2] = compound: CCC1=CN=CN=C1N2CCN(CC2)CC3=NC4=C(N3)C=C(C=C4)C(F)(F)F
Procedure, shortened: as §1

Mirin = compound: N=C1NC(=O)/C(=C/c2ccc(O)cc2)S1 [Mirin]
Procedure, shortened: as §1

[3] = compound: CCC1=CN=CN=C1N2CCN(CC2)CC3=NC4=C(N3)C=C(C=C4)C(F)(F)F + COc1cc2c(Oc3ccc(NC(=O)C4(C(=O)Nc5ccc(F)cc5)CC4)cc3F)ccnc2cc1OCCCN1CCOCC1 [Foretinib] (partner 0.25 µM)
Procedure, shortened: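 Lung cancer cell lines were pin-tool dosed in 1536-well plates on the day after seeding, with either a lone drug or a fixed anchor-drug dose plus five library-drug doses (not always all listed) in √10 steps. Nuclei were counted on 4× images after 5 days. Relative viability is the ratio of treated-well to vehicle-well nuclei counts, with each value a median of duplicate plates.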

| Cell Line | relative viability ([1]; 0.04 µM) | relative viability ([1]; 0.1265 µM) | relative viability ([1]; 0.4 µM) | relative viability ([1]; 1.265 µM) | relative viability ([1]; 4 µM) | relative viability ([2]; 0.04 µM) | relative viability ([2]; 0.1265 µM) | relative viability ([2]; 0.4 µM) | relative viability ([2]; 1.265 µM) | relative viability ([2]; 4 µM) | relative viability (Mirin; 0.25 µM) | relative viability (Mirin; 0.7906 µM) | relative viability (Mirin; 2.5 µM) | relative viability (Mirin; 7.906 µM) | relative viability (Mirin; 25 µM) | relative viability ([3]; first compound 0.04 µM) | relative viability ([3]; first compound 0.1265 µM) | relative viability ([3]; first compound 0.4 µM) | relative viability ([3]; first compound 1.265 µM) | relative viability ([3]; first compound 4 µM) |
| --- | --- | --- | --- | --- | --- | --- | --- | --- | --- | --- | --- | --- | --- | --- | --- | --- | --- | --- | --- | --- |
| A549 | 1.24 | 1.01 | 0.742 | 0.116 | 0.116 | 0.978 | 0.868 | 0.921 | 0.934 | 0.89 | 1.01 | 0.982 | 1.05 | 0.913 | 0.953 | 0.851 | 0.903 | 0.937 | 0.816 | 0.905 |
| NCI-H2342 | 1.04 | 1.05 | 0.874 | 0.748 | 0.804 | 0.936 | 0.888 | 0.864 | 0.543 | 0.72 | 0.998 | 1.02 | 1.03 | 0.668 | 0.888 | 1.16 | 0.95 | 0.945 | 0.528 | 0.607 |
| NCI-H1623 | 1.13 | 1.02 | 0.974 | 0.902 | 1.08 | 0.897 | 0.996 | 0.873 | 0.832 | 1.17 | 0.967 | 1.08 | 1.04 | 0.823 | 0.738 | 0.835 | 0.819 | 0.767 | 0.749 | 0.794 |
| SW 1573 | 1.1 | 0.992 | 0.74 | 0.488 | 0.338 | 0.925 | 1.08 | 0.912 | 0.858 | 0.941 | 0.986 | 0.825 | 0.986 | 0.968 | 0.779 | 0.732 | 0.863 | 0.912 | 0.815 | 0.8 |
| NCI-H2085 | 1.09 | 0.919 | 0.826 | 0.778 | 0.765 | 0.896 | 0.912 | 0.949 | 0.918 | 0.972 | 0.981 | 0.979 | 1.01 | 0.957 | 0.99 | 0.971 | 1.13 | 0.792 | 0.76 | 0.959 |
| NCI-H520 | 1.24 | 1.05 | 0.978 | 0.567 | 0.511 | 0.953 | 0.902 | 0.962 | 0.746 | 1.02 | 1 | 0.882 | 1.02 | 0.808 | 0.709 | 0.795 | 0.626 | 0.777 | 0.588 | 0.798 |
| Calu-6 | 1.05 | 1.02 | 0.841 | 0.604 | 0.549 | 1 | 0.986 | 0.953 | 0.898 | 0.925 | 1.02 | 1.07 | 1.06 | 0.923 | 0.987 | 0.91 | 0.841 | 0.889 | 0.807 | 0.782 |
| SK-LU-1 | 1.16 | 0.795 | 0.672 | 0.452 | 0.566 | 1.1 | 0.969 | 0.967 | 0.808 | 0.994 | 1.14 | 1.07 | 1.07 | 0.809 | 0.905 | 0.876 | 0.785 | 0.76 | 0.813 | 0.77 |
| LCLC-103H | 1.09 | 0.981 | 0.783 | 0.705 | 0.775 | 1.02 | 0.927 | 0.928 | 0.841 | 1.11 | 0.99 | 0.977 | 1.05 | 0.929 | 1.07 | 0.917 | 0.852 | 0.757 | 0.644 | 0.688 |
| HCC-15 | 1.12 | 0.964 | 0.844 | 0.77 | 0.911 | 0.999 | 0.946 | 0.934 | 0.897 | 1.04 | 1.06 | 0.798 | 0.979 | 0.884 | 0.953 | 1.02 | 1.01 | 1.03 | 1 | 1.01 |
| H3255 | 1.14 | 1.01 | 0.898 | 0.67 | 0.732 | 0.97 | 0.95 | 0.913 | 0.874 | 0.919 | 0.982 | 0.962 | 0.992 | 0.936 | 1 | 0.828 | 0.872 | 0.894 | 0.739 | 0.776 |
| NCI-H1792 | 1.05 | 0.773 | 0.343 | 0.458 | 0.599 | 0.79 | 0.749 | 0.814 | – | 0.96 | 0.775 | 0.925 | 0.859 | 0.711 | 1.06 | – | – | – | – | – |
| NCI-H1563 | 0.853 | 0.872 | 0.868 | 0.86 | 0.778 | 0.956 | 0.965 | 0.953 | 0.9 | 1 | 1.03 | 1.21 | 0.995 | 0.942 | 0.951 | 0.961 | 1.01 | 0.938 | 0.844 | 0.917 |
| NCI-H647 | 1.08 | 0.707 | 0.705 | 0.458 | 0.55 | 0.891 | 0.915 | 0.828 | 0.711 | 1.03 | 1.11 | 0.864 | 0.975 | 0.918 | 0.904 | 1.29 | 1.12 | 1.21 | 1.13 | 1.41 |
| NCI-H522 | 1.13 | 0.815 | 0.74 | 0.576 | 0.698 | 0.833 | 1.03 | 0.931 | 0.799 | 0.919 | 0.979 | 0.9 | 1.06 | 0.753 | 0.655 | – | – | – | – | – |
| HCC-44 | 1.01 | 1.05 | 0.565 | 0.326 | 0.321 | 0.961 | 0.972 | 0.968 | 1.04 | 0.982 | 0.987 | 1.1 | 0.991 | 0.925 | 1.18 | – | – | – | – | – |
| NCI-H1648 | 1.27 | 1.34 | 0.982 | 1.35 | 0.875 | 0.916 | 0.664 | – | 1.1 | 0.611 | 1.04 | 0.726 | 1.09 | 0.552 | 0.709 | – | – | – | – | – |
